The supplement of paper PMC11451515

Tested on: P12-Ichikawa
Experiment: cell viability relative to DMSO control; higher = less cytotoxic
Conditions: 48 h
How it was run: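 Cells were incubated for 48 h at 37°C before CellTiter-Glo One luminescence was read. The cells were NOMO1 or SEM (500 cells/well) or P12-Ichikawa (1000 cells/well) leukemia cells, adapted for at least four passages in each medium and seeded in 1536-well plates (5 μl). Dosing used library compounds in DMSO applied by pin over 11 threefold points, 47 μM to 0.79 nM. Viability is the per-plate percentage of DMSO wells, with cell-free wells as background.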

[1] = HPLM + 10% dialyzed FBS, 0.000781 µM
[2] = HPLM + 10% dialyzed FBS, 0.00234 µM
[3] = HPLM + 10% dialyzed FBS, 0.00702 µM
[4] = HPLM + 10% dialyzed FBS, 0.0211 µM
[5] = HPLM + 10% dialyzed FBS, 0.0632 µM
[6] = HPLM + 10% dialyzed FBS, 0.19 µM
[7] = HPLM + 10% dialyzed FBS, 0.569 µM
[8] = HPLM + 10% dialyzed FBS, 1.71 µM
[9] = HPLM + 10% dialyzed FBS, 5.12 µM
[10] = HPLM + 10% dialyzed FBS, 15.4 µM
[11] = HPLM + 10% dialyzed FBS, 46.1 µM
[12] = RPMI 5 mM glucose + 10% FBS, 0.000781 µM
[13] = RPMI 5 mM glucose + 10% FBS, 0.00234 µM
[14] = RPMI 5 mM glucose + 10% FBS, 0.00702 µM
[15] = RPMI 5 mM glucose + 10% FBS, 0.0211 µM
[16] = RPMI 5 mM glucose + 10% FBS, 0.0632 µM
[17] = RPMI 5 mM glucose + 10% FBS, 0.19 µM
[18] = RPMI 5 mM glucose + 10% FBS, 0.569 µM
[19] = RPMI 5 mM glucose + 10% FBS, 1.71 µM
[20] = RPMI 5 mM glucose + 10% FBS, 5.12 µM
[21] = RPMI 5 mM glucose + 10% FBS, 15.4 µM
[22] = RPMI 5 mM glucose + 10% FBS, 46.1 µM
[23] = RPMI 5 mM glucose + 10% dialyzed FBS, 0.000781 µM
[24] = RPMI 5 mM glucose + 10% dialyzed FBS, 0.00234 µM
[25] = RPMI 5 mM glucose + 10% dialyzed FBS, 0.00702 µM
[26] = RPMI 5 mM glucose + 10% dialyzed FBS, 0.0211 µM
[27] = RPMI 5 mM glucose + 10% dialyzed FBS, 0.0632 µM
[28] = RPMI 5 mM glucose + 10% dialyzed FBS, 0.19 µM
[29] = RPMI 5 mM glucose + 10% dialyzed FBS, 0.569 µM
[30] = RPMI 5 mM glucose + 10% dialyzed FBS, 1.71 µM
[31] = RPMI 5 mM glucose + 10% dialyzed FBS, 5.12 µM
[32] = RPMI 5 mM glucose + 10% dialyzed FBS, 15.4 µM
[33] = RPMI 5 mM glucose + 10% dialyzed FBS, 46.1 µM

Row | Compound | cell viability [1] | cell viability [2] | cell viability [3] | cell viability [4] | cell viability [5] | cell viability [6] | cell viability [7] | cell viability [8] | cell viability [9] | cell viability [10] | cell viability [11] | cell viability [12] | cell viability [13] | cell viability [14] | cell viability [15] | cell viability [16] | cell viability [17] | cell viability [18] | cell viability [19] | cell viability [20] | cell viability [21] | cell viability [22] | cell viability [23] | cell viability [24] | cell viability [25] | cell viability [26] | cell viability [27] | cell viability [28] | cell viability [29] | cell viability [30] | cell viability [31] | cell viability [32] | cell viability [33]
1 | C[C@@H]1COCCN1c1cc(C2([S@+](C)(=N)[O-])CC2)nc(-c2ccnc3[nH]ccc23)n1 | 99.7% | 103% | 106% | 110% | 110% | 109% | 99.8% | 92.3% | 47.5% | 15.7% | 7.87% | 104% | 105% | 118% | 114% | 109% | 114% | 104% | 90.7% | 55% | 19.7% | 7.94% | 99.4% | 110% | 117% | 113% | 123% | 128% | 109% | 84.7% | 40.8% | 16.5% | 8.66%
2 | CCc1ccc(CCOc2ccc(CC3SC(=O)NC3=O)cc2)nc1 (stereo not given) | 121% | 118% | 123% | 117% | 116% | 113% | 113% | 113% | 108% | 108% | 108% | 118% | 112% | 118% | 115% | 117% | 112% | 127% | 119% | 109% | 118% | 119% | 123% | 118% | 129% | 120% | 126% | 116% | 114% | 121% | 120% | 111% | 100%
3 | C[C@](O)(CS(=O)(=O)c1ccc(F)cc1)C(=O)Nc1ccc(C#N)c(C(F)(F)F)c1 | 97.6% | 115% | 110% | 120% | 115% | 115% | 124% | 119% | 118% | 114% | 107% | 104% | 110% | 112% | 109% | 111% | 108% | 114% | 110% | 126% | 119% | 105% | 102% | 118% | 126% | 130% | 122% | 120% | 132% | 120% | 130% | 113% | 101%
4 | CNC(=O)c1ccc(N2C(=S)N(c3cnc(C#N)c(C(F)(F)F)c3)C(=O)C23CCC3)cc1F | 94.2% | 109% | 109% | 109% | 112% | 111% | 111% | 114% | 109% | 95% | 96.3% | 86.7% | 95.7% | 97.5% | 106% | 109% | 107% | 117% | 113% | 111% | 92.8% | 96.1% | 90.5% | 111% | 118% | 118% | 118% | 119% | 116% | 123% | 126% | 128% | 101%
5 | Cn1cnc2c(F)c(Nc3ccc(Br)cc3F)c(C(=O)NOCCO)cc21 | 88.4% | 101% | 96.6% | 11.1% | 102% | 91.9% | 91% | 85.7% | 87.2% | 86.3% | 81.2% | 84.5% | 92.6% | 96.7% | 13.6% | 92.3% | 82.7% | 80.1% | 78.2% | 75.5% | 74.2% | 73.1% | 91% | 98% | 101% | 26.2% | 97% | 93.5% | 83.8% | 89.1% | 91.8% | 86.6% | 81.4%
6 | CC[C@]12CC[C@H]3[C@@H](CCC/4=C/C(=O)CC[C@H]34)[C@@H]1\C=C/[C@@]2(O)C#C | 109% | 124% | 124% | 125% | 132% | 129% | 128% | 120% | 122% | 123% | 119% |  |  |  |  |  |  |  |  |  |  |  | 106% | 110% | 121% | 115% | 119% | 114% | 124% | 123% | 118% | 113% | 116%
7 | COc1cc(F)c(F)c(Nc2ccc(I)cc2F)c1N[S+](=O)([O-])C1(C[C@H](O)CO)CC1 | 114% | 107% | 110% | 116% | 111% | 112% | 110% | 108% | 106% | 89% | 42.7% | 110% | 123% | 128% | 113% | 112% | 104% | 115% | 118% | 115% | 96.4% | 74.8% | 123% | 120% | 126% | 118% | 116% | 104% | 118% | 122% | 123% | 97.3% | 58.2%
8 | O=C(Nc1cccc(C(F)(F)F)c1)Nc1cc([S+](=O)([O-])NC2CC2)ccc1-c1ccsc1 | 127% | 109% | 115% | 111% | 112% | 114% | 110% | 110% | 108% | 104% | 76.9% | 120% | 118% | 119% | 112% | 123% | 118% | 116% | 119% | 112% | 110% | 69.8% | 121% | 116% | 107% | 121% | 117% | 119% | 105% | 94.1% | 107% | 103% | 50.1%
9 | COCC1(CO)C(=O)C2CCN1CC2 (stereo not given) | 90.6% | 103% | 105% | 112% | 108% | 109% | 85.3% | 103% | 81.9% | 37.7% | 4.42% | 92.7% | 109% | 109% | 110% | 106% | 117% | 95.2% | 104% | 77.8% | 53.6% | 6.98% | 103% | 104% | 109% | 115% | 107% | 112% | 96.4% | 101% | 81.8% | 64.2% | 23%
10 | CN(C)[S+](=O)([O-])c1ccc2c(c1)C(=Cc1cc3c([nH]1)CCCC3)C(=O)N2 | 124% | 114% | 122% | 121% | 123% | 117% | 125% | 122% | 111% | 110% | 112% |  |  |  |  |  |  |  |  |  |  |  | 118% | 125% | 121% | 116% | 114% | 125% | 128% | 124% | 122% | 106% | 108%
11 | COc1ccccc1OCC(O)COC(N)=O (stereo not given) | 88.2% | 107% | 103% | 109% | 109% | 107% | 111% | 117% | 111% | 112% | 58.1% | 112% | 118% | 117% | 114% | 120% | 118% | 124% | 106% | 118% | 126% | 125% | 93.1% | 105% | 101% | 107% | 110% | 103% | 110% | 101% | 113% | 117% | 106%
12 | O=C(O)CCC1CCC(c2cc(F)ccc2F)([S+](=O)([O-])c2ccc(Cl)cc2)CC1 (stereo not given) | 105% | 114% | 117% | 115% | 114% | 121% | 128% | 118% | 86.7% | 21.5% | 9.14% | 99% | 125% | 117% | 126% | 118% | 116% | 128% | 140% | 109% | 24.3% | 9.78% | 103% | 117% | 123% | 123% | 123% | 118% | 124% | 125% | 112% | 56.7% | 13.2%
13 | C[C@]12COC(=O)C[C@@H]1CC[C@@H]1[C@@H]2CC[C@@]2(C)[C@H]1CC[C@]2(C)O | 105% | 107% | 117% | 107% | 110% | 102% | 107% | 103% | 102% | 100% | 88.1% | 106% | 109% | 101% | 100% | 107% | 105% | 113% | 98.3% | 101% | 103% | 97.4% | 101% | 98.6% | 97.5% | 104% | 92.3% | 101% | 99.2% | 104% | 94.1% | 98.7% | 95.2%
14 | CNc1nc(Nc2ccc(C(=O)N3CCOCC3)cc2OC)ncc1Cl |  |  |  |  |  |  |  |  |  |  |  | 120% | 116% | 122% | 119% | 120% | 115% | 113% | 107% | 108% | 108% | 101% | 123% | 115% | 121% | 116% | 123% | 125% | 116% | 124% | 112% | 109% | 104%
15 | Cc1nc2cnc3ccc(C#Cc4cccnc4)cc3c2n1-c1ccc(C(C)(C)C#N)cc1 | 84.7% | 89.5% | 86.4% | 87.4% | 63.2% | 56% | 58.4% | 53.7% | 54.2% | 54.4% | 41% | 65.6% | 84.1% | 78.1% | 88.3% | 49.1% | 43.5% | 33.5% | 43.7% | 36.5% | 40.6% | 19.9% | 71.8% | 80.4% | 77% | 89.2% | 53.6% | 49.6% | 36.4% | 36.6% | 33.7% | 37.6% | 24.2%
16 | CC[C@H](NC1=C2N=C[NH]C2=NC=N1)C/3=N/C4=C(C(=CC=C4)F)C(=O)N3C5=CC=CC=C5 | 125% | 118% | 122% | 131% | 133% | 120% | 115% | 118% | 101% | 88.9% | 56.3% | 114% | 115% | 118% | 120% | 128% | 104% | 86.6% | 94.7% | 78.2% | 61.9% | 50.2% | 124% | 123% | 125% | 132% | 131% | 115% | 99.7% | 98.7% | 91.7% | 70.7% | 51.9%
